Measurements as given in patent US7655442B2, “Method for stabilizing macrolide compounds” (Eisai R&D Management Co., Ltd., priority 2004, dated 2010).
Read-outs that look alike come from different tables or passages of the source.

Columns and labels:
[1] = format: physicochemical
Procedure: The macrolide compound 11107B was dissolved in Dulbecco's PBS (−) in a concentration of 0.1 mg/mL, and β-CD in concentrations of 10, 3, 1, and 0.3 mg/mL. The 11107B solution and β-CD solution were mixed in equal volumes, and incubation was immediately begun in a 40° C. thermostatic incubator. The solution was sampled at the start (0 hour) and after 1, 2, 4 and 6 hours had elapsed, the samples were analyzed by HPLC under the analysis conditions (A) of Example 1, and the concentration of the 11107B was calculated. Since the plot of the 11107B concentration versus elapsed time was substantially linear, it was concluded that decomposition was occurring in pseudo first-order reaction, and the apparent decomposition rate constant kobs was calculated from the slope thereof. kobs was termed k0 when no β-CD was prevent. According to a report by Ma et al. (J. Pharm. Sci. (2000), 89 (2), 275-287), 1/(k0-kobs) was plotted against the inverse of the β-CD concentration, kc, which is kobs when a large excess of β-CD was present, was calculated from an intercept thereof, and the stabilization constant Kc was calculated from the slope.

[2] = Effects of various cyclodextrins on stabilization of macrolide compound 11107B in Dulbecco's PBS (-) at 25° C. (HPLC purity); format: physicochemical
Procedure: The macrolide compound 11107B (hereinafter sometimes abbreviated as 11107B) and various cyclodextrins were dissolved in concentrations of 0.1 mg/mL and 10 mg/mL, respectively, in Dulbecco's PBS (−). The 11107B solution and cyclodextrin solution were mixed in equal volumes, and incubation was immediately begun in at thermostatic incubator at 25° C. The solution was sampled at the start (0 hour) and after 24 and 48 hours had elapsed, the samples were analyzed by high performance liquid chromatography (HPLC) under the following analysis conditions (A), and the purity of the 11107B was calculated from the following equation using the chromatogram thus obtained.
<HPLC Analysis Conditions (A)>
Column: L-column, 4.6×150 mm, Chemicals Evaluation and Research Institute
Column temperature: 35° C.
Detection wavelength: 241 nm
Mobile phase A: 0.1% (v/v) formic acid•10% (v/v) acetonitrile
Mobile phase B: 0.1% (v/v) formic acid•90% (v/v) acetonitrile
Gradient program: B=10% (start)→B=40% (15 minutes)→B=100% (20 minutes)→B=10% (20.01 minutes)→B=10% (23 minutes, stop)<
(§1) <Calculation Equation> 11107B purity(%)=[peak surface area value of 11107B/(sum of peak surface area value of 11107B+peak surface area value of impurities and decomposition products)]×100

[3] = Effect of β-CD and methylated β-CD on stabilization of 11107B in Dulbecco's PBS (-) at 25° C. (HPLC purity); format: physicochemical
Procedure: as §1
The macrolide compound 11107B and β-CD or methylated β-CD were dissolved in Dulbecco's PBS (−) in concentrations of 0.1 mg/mL and 10 mg/mL, respectively. The 11107B solution and β-CD solution were mixed in equal volumes, and incubation was immediately begun in thermostatic incubator at 25° C. The solution was sampled at the start (0 hour) and after 24, 48 and 120 hours had elapsed, and the samples were analyzed by HPLC under the following analysis conditions (B). The purity of the 11107B was calculated from the equation in Example 1 using the resulting chromatogram.
<HPLC Analysis Conditions (B)>
Column: Develosil ODS UG-3, 4.6×50 mm, 3 μm (made by Nomura Chemical)
Column temperature: 40° C.
Detection wavelength: 240 nm
Eluate: water/methanol gradient
• A=water, B=methanol • 45-55% B (0 to 5 minutes), 55% B (5 to 13 minutes) • 55-70% B (13 to 21 minutes), 45% B (21 to 25 minutes) Retention time: 13 minutes (11107B)

[4] = format: physicochemical; details: for Purity of macorolide compound 11107B: freeze-dried preparation
Procedure: as §1
Lactose monohydrate was dissolved in purified water in a concentration of 10 mg/mL and HP-β-CD in concentrations of 0, 10 and 200 mg/mL. The macrolide compound 11107B was dissolved in a concentration of 0.1 mg/mL in each of these three types of solution. 1 mL of each solution was put into vials and freeze-dried. The freeze-dried preparations thus obtained were stored for one month at −20° C., 40° C. and 60° C., after which 1 mL of 50% acetonitrile aqueous solution was added to each vial to dissolve the preparation. This product was analyzed by HPLC analysis under the conditions (A) of Example 1, and the purity of the 11107B was calculated according to the equation of Example 1.

[5] = β-CD concentration 0.15 mg/mL, PBS (-), 40° C.
[6] = β-CD concentration 0.5 mg/mL, PBS (-), 40° C.
[7] = β-CD concentration 1.5 mg/mL, PBS (-), 40° C.
[8] = β-CD concentration 5 mg/mL, PBS (-), 40° C.

With `CCC(O)C(C)C1OC1CC(C)/C=C/C=C(\C)C1OC(=O)CC(O)CCC(C)(O)C(OC(C)=O)/C=C/C1C` (stereo not drawn) [11107B, (8E,12E,14E)-7-acetoxy-3,6,21-trihydroxy-6,10,12,16,20-pentamethyl-18,19-epoxytricosa-8,12,14-trien-11-olide] the “stabilization constant Kc” value ([1]; 0.05 mg/mL) was ≥ 1500, the “k0 (kobs when no β-CD was present)” value ([1]; PBS (-), 40° C., estimated) was 0.152 h⁻¹ and the “kc (kobs when a large excess of β-CD was present)” value ([1]; from intercept of 1/(k0-kobs) versus inverse of β-CD concentration, PBS (-), 40° C.) was 0.004 h⁻¹. The “kobs (apparent decomposition rate constant)” value ([1]; β-CD concentration 0 mg/mL, PBS (-), 40° C.) was 0.152 h⁻¹, the “1/(k0 − kobs)” value [1, 5] was 39.057 and the “k0 − kobs” value [1, 5] was 0.026. For the same molecule, the “kobs (apparent decomposition rate constant)” value [1, 5] was 0.126 h⁻¹, the “1/(k0 − kobs)” value [1, 6] was 16.736 and the “k0 − kobs” value [1, 6] was 0.060. For the same molecule, the “kobs (apparent decomposition rate constant)” value [1, 6] was 0.092 h⁻¹, the “1/(k0 − kobs)” value [1, 7] was 9.971 and the “k0 − kobs” value [1, 7] was 0.100. The “kobs (apparent decomposition rate constant)” value [1, 7] was 0.052 h⁻¹, the “1/(k0 − kobs)” value [1, 8] was 7.590 and the “k0 − kobs” value [1, 8] was 0.132. The “kobs (apparent decomposition rate constant)” value [1, 8] was 0.020 h⁻¹, the “decomposition rate of included 11107B relative to 11107B that was not included” value ([1]; β-CD inclusion, PBS (-), 40° C.) was 1/30 and the “Purity of macorolide compound 11107B” value ([2]; CD not added, 0 h, Dulbecco's PBS (-)) was 99%. The “Purity of macorolide compound 11107B” value ([2]; CD not added, 24 h, Dulbecco's PBS (-)) was 62%, the “Purity of macorolide compound 11107B” value ([2]; CD not added, 48 h, Dulbecco's PBS (-)) was 35% and the “Purity of macorolide compound 11107B” value ([2]; HP-α-CD (10 mg/mL solution mixed in equal volume with 0.1 mg/mL 11107B), 0 h, PBS (-)) was 99%. For the same molecule, the “Purity of macorolide compound 11107B” value ([2]; HP-α-CD (10 mg/mL solution mixed in equal volume with 0.1 mg/mL 11107B), 24 h, PBS (-)) was 71%, the “Purity of macorolide compound 11107B” value ([2]; HP-α-CD (10 mg/mL solution mixed in equal volume with 0.1 mg/mL 11107B), 48 h, PBS (-)) was 47% and the “Purity of macorolide compound 11107B” value ([2]; HP-β-CD (10 mg/mL solution mixed in equal volume with 0.1 mg/mL 11107B), 0 h, PBS (-)) was 100%. The “Purity of macorolide compound 11107B” value ([2]; HP-β-CD (10 mg/mL solution mixed in equal volume with 0.1 mg/mL 11107B), 24 h, PBS (-)) was 93%, the “Purity of macorolide compound 11107B” value ([2]; HP-β-CD (10 mg/mL solution mixed in equal volume with 0.1 mg/mL 11107B), 48 h, PBS (-)) was 86% and the “Purity of macorolide compound 11107B” value ([2]; HP-γ-CD (10 mg/mL solution mixed in equal volume with 0.1 mg/mL 11107B), 0 h, PBS (-)) was 99%. For the same molecule, the “Purity of macorolide compound 11107B” value ([2]; HP-γ-CD (10 mg/mL solution mixed in equal volume with 0.1 mg/mL 11107B), 24 h, PBS (-)) was 83%, the “Purity of macorolide compound 11107B” value ([2]; HP-γ-CD (10 mg/mL solution mixed in equal volume with 0.1 mg/mL 11107B), 48 h, PBS (-)) was 67% and the “Purity of macorolide compound 11107B” value ([2]; α-CD (10 mg/mL solution mixed in equal volume with 0.1 mg/mL 11107B), 0 h, PBS (-)) was 99%. The “Purity of macorolide compound 11107B” value ([2]; α-CD (10 mg/mL solution mixed in equal volume with 0.1 mg/mL 11107B), 24 h, PBS (-)) was 71%, the “Purity of macorolide compound 11107B” value ([2]; α-CD (10 mg/mL solution mixed in equal volume with 0.1 mg/mL 11107B), 48 h, PBS (-)) was 47% and the “Purity of macorolide compound 11107B” value ([2]; β-CD (10 mg/mL solution mixed in equal volume with 0.1 mg/mL 11107B), 0 h, PBS (-)) was 100%. For the same molecule, the “Purity of macorolide compound 11107B” value ([2]; β-CD (10 mg/mL solution mixed in equal volume with 0.1 mg/mL 11107B), 24 h, PBS (-)) was 95%, the “Purity of macorolide compound 11107B” value ([2]; β-CD (10 mg/mL solution mixed in equal volume with 0.1 mg/mL 11107B), 48 h, PBS (-)) was 90% and the “Purity of macorolide compound 11107B” value ([2]; γ-CD (10 mg/mL solution mixed in equal volume with 0.1 mg/mL 11107B), 0 h, PBS (-)) was 100%. For the same molecule, the “Purity of macorolide compound 11107B” value ([2]; γ-CD (10 mg/mL solution mixed in equal volume with 0.1 mg/mL 11107B), 24 h, PBS (-)) was 88%, the “Purity of macorolide compound 11107B” value ([2]; γ-CD (10 mg/mL solution mixed in equal volume with 0.1 mg/mL 11107B), 48 h, PBS (-)) was 77% and the “Purity of macorolide compound 11107B” value ([3]; CD not added, 0 h) was 98%. The “Purity of macorolide compound 11107B” value ([3]; CD not added, 24 h) was 59%, the “Purity of macorolide compound 11107B” value ([3]; CD not added, 48 h) was 34% and the “Purity of macorolide compound 11107B” value ([3]; CD not added, 120 h) was 3%. The “Purity of macorolide compound 11107B” value ([3]; methylated β-CD (10 mg/mL solution mixed in equal volume with 0.1 mg/mL 11107B), 0 h) was 98%, the “Purity of macorolide compound 11107B” value ([3]; methylated β-CD (10 mg/mL solution mixed in equal volume with 0.1 mg/mL 11107B), 24 h) was 95% and the “Purity of macorolide compound 11107B” value ([3]; methylated β-CD (10 mg/mL solution mixed in equal volume with 0.1 mg/mL 11107B), 48 h) was 92%. The “Purity of macorolide compound 11107B” value ([3]; methylated β-CD (10 mg/mL solution mixed in equal volume with 0.1 mg/mL 11107B), 120 h) was 80%, the “Purity of macorolide compound 11107B” value ([3]; β-CD (10 mg/mL solution mixed in equal volume with 0.1 mg/mL 11107B), 0 h) was 98% and the “Purity of macorolide compound 11107B” value ([3]; β-CD (10 mg/mL solution mixed in equal volume with 0.1 mg/mL 11107B), 24 h) was 95%. The “Purity of macorolide compound 11107B” value ([3]; β-CD (10 mg/mL solution mixed in equal volume with 0.1 mg/mL 11107B), 48 h) was 90%, the “Purity of macorolide compound 11107B” value ([3]; β-CD (10 mg/mL solution mixed in equal volume with 0.1 mg/mL 11107B), 120 h) was 74% and the “stability in a solid form in a freeze-dried preparation on addition of cyclodextrin” value [4] was “sufficiently stabilized”. The “Purity of macorolide compound 11107B” value ([4]; HP-β-CD concentration 10 mg/mL, stored one month at 40° C.) was 99.76 ± 0.08%, the “Purity of macorolide compound 11107B” value ([4]; HP-β-CD concentration 10 mg/mL, stored one month at 60° C.) was 98.60 ± 0.06% and the “Purity of macorolide compound 11107B” value ([4]; HP-β-CD concentration 10 mg/mL, stored one month at −20° C.) was 99.73 ± 0.01%. For the same molecule, the “Purity of macorolide compound 11107B” value ([4]; HP-β-CD concentration 200 mg/mL, stored one month at 40° C.) was 99.82 ± 0.02%, the “Purity of macorolide compound 11107B” value ([4]; HP-β-CD concentration 200 mg/mL, stored one month at 60° C.) was 98.90 ± 0.05% and the “Purity of macorolide compound 11107B” value ([4]; HP-β-CD concentration 200 mg/mL, stored one month at −20° C.) was 99.70 ± 0.00%. For the same molecule, the “Purity of macorolide compound 11107B” value ([4]; HP-β-CD not added, stored one month at 40° C.) was 98.17 ± 0.12%, the “Purity of macorolide compound 11107B” value ([4]; HP-β-CD not added, stored one month at 60° C.) was 94.63 ± 0.11% and the “Purity of macorolide compound 11107B” value ([4]; HP-β-CD not added, stored one month at −20° C.) was 99.56 ± 0.01%.
